Results taken from patent US20100021895A1, “Vectors for Inducing Homozygous Mutations and Methods of Using Same” (priority 2006, published 2010).

Tested on: mouse embryonic stem cell clones, each containing a neomycin resistance gene (Neo) inserted by the GTR1.3 gene trap retrovirus
Test: Carcinogen-induced LOH: frequency of colony formation in 2.0 mg/ml G418
Format: cell-based
Conditions: for enhanced colony formation, average: at least 25 entrapment lines
Procedure: Carcinogen-induced LOH was measured in a panel of 53 mouse embryonic stem cell clones, each containing a neomycin resistance gene (Neo) inserted into a different cellular gene (FIG. 9) by the GTR1.3 gene trap retrovirus. Gene entrapment by GTR1.3 involves selection for inserted Neo sequences that can splice to the 3′ ends of cellular genes (Lin et al.,). The disrupted genes were identified by sequencing Neo-gene fusion transcripts and were localized on the mouse genome. Previous studies have shown that cells homozygous for GTR1.3-induced mutations can be selected from heterozygous cells simply by selecting for resistance to higher concentrations of G418, a method first shown to select for homozygous mutations induced by gene targeting (15). Mitotic recombination appears to be the preferred mechanism of spontaneous LOH involving Neo genes inserted in ES cells (17) and LOH involving other genes and cell types in vivo (12, 13). LOH doubles the number of Neo genes per cell and thus allows moderately resistant cells to acquire resistance to higher concentrations of G418. The frequencies of spontaneous LOH measured at the 53 different sites ranged from 1.3×10^−5 to 1.2×10^−4 (Table 3), similar to those reported for other inserted neomycin resistance genes (15, 17) in ES cells and for loci such as TK and APRT in other cell types (12, 13).
A variety of chemical agents were tested for their ability to enhance the frequencies at which mutant cells survive in 2.0 mg/ml G418. Methyl-nitrosurea (MNU) is an alkylating agent that produces a variety of mono-methylated DNA adducts, hydroxyurea (HU) stalls DNA replication complexes, doxorubicin interferes with DNA synthesis, methothrexate is a competitive inhibitor of dihydrofolate reductase but is not genotoxic, diepoxybutane and mitomycin C induce inter-strand DNA crosslinks, UV irradiation causes intra- and inter-strand pyrimidine dimmers, and ethidium bromide intercalates between DNA strands to damage DNA (For additional information about these agents see http://toxnet.nlm.nih.gov and http://lisntweb.swan.ac.uk/cmgt/index.htm). […] The fold-increase for MNU and HU ranged from 39-123 and 18-68, respectively (Table 3). The optimal concentrations of each agent to stimulate colony formation with minimal toxicity (<5% loss of cell viability) were determined in advance (FIG. 13). […] Each of these agents was tested two or more times on at least 25 entrapment lines.
Serially diluted cells were plated onto 150 mm plates containing drug-free media and allowed to attach overnight. Unattached cells were removed and media containing the indicated concentrations of methyl-nitrosourea, hydroxyurea, ethidium bromide, doxorubicin, methotrexate, diepoxybutane, or mitomycin C was put onto cells for 4 hours (or cells were exposed to ultraviolet light in the absence of media and allowed to recover in drug-free media for 4 hours). Cells were then rinsed twice with drug-free media and selection media containing 0.0, 0.3, or 2.0 mg/ml G418 was put onto cells. After 12 days of selection, the number of colonies surviving was counted and the frequency of colony formation was determined by dividing the number of colonies obtained from 2.0 mg/ml G418 selection to that obtained from parallel experiments with 0.3 mg/ml G418 selection. TK gene loss was assessed following selection in media containing 2 μg/ml gancyclovir.
Table 3. The frequency of colony formation in high concentrations of G418. The frequency of colony formation is listed for all 53 clones examined. Frequency was determined by dividing the number of colonies surviving 2.0 mg/ml G418 selection to the number surviving parallel experiments with 0.3 mg/ml G418 selection, and is the average of at least 3 independent experiments for each clone. Standard deviations, which ranged from 5 to 70% of the mean values, have been omitted for clarity. […]

SMILES: CC[n+]1c(-c2ccccc2)c2cc(N)ccc2c2ccc(N)cc21 [EtBr, ethidium bromide]
- effect on colony formation in high G418 (ethidium bromide 25 μg/ml): no significant effect

SMILES: C1OC1C1CO1 (stereo not drawn) [diepoxybutane]
- survival of mutant ES cells in media containing 2.0 mg/ml G418 (ES cells heterozygous for Xrcc5 entrapment mutation, 4 hours with 0.5 mM methyl-nitrosourea, 0.25 mM hydroxyurea or 100 ng/ml diepoxybutane): enhances the survival
- enhanced colony formation, average (diepoxybutane 100 ng/mL): 16 fold

SMILES: COc1cccc2c1C(=O)c1c(O)c3c(c(O)c1C2=O)C[C@@](O)(C(=O)CO)C[C@@H]3O[C@H]1C[C@H](N)[C@H](O)[C@H](C)O1 [doxorubicin]
- enhanced colony formation, average (doxorubicin 0.1 μM): 15 fold

SMILES: CN(Cc1cnc2nc(N)nc(N)c2n1)c1ccc(C(=O)N[C@@H](CCC(=O)O)C(=O)O)cc1 [methothrexate]
- effect on colony formation in high G418 (methothrexate 50 μM): no significant effect

SMILES: CO[C@@]12[C@H](COC(N)=O)C3=C(C(=O)C(C)=C(N)C3=O)N1C[C@@H]1N[C@@H]12 [mitomycin C]
- enhanced colony formation, average (mitomycin C 50 ng/mL): 14 fold
